{"source": "paper PMC6416395", "about": "“B1.12: a novel peptide interacting with the extracellular loop of the EBV oncoprotein LMP1” (Scientific Reports, 2019)", "molecules": {"B1": {"name": "B1.12 peptide (peptide)", "peptide": "ACPLDLRSPCG", "notes": "peptide selected by phage display from the Ph.D.-C7C library against the B1 loop peptide of LMP1; Made on Rink amide MBHA resin, so the C-terminus may be an amide (surmised); also called selected peptide B1.12; source: synthetic peptide (solid-phase Fmoc chemistry, RP-HPLC purified)"}, "B2": {"name": "B1 peptide (first extracellular loop of LMP1) (peptide)", "peptide": "CMSDWTGG", "notes": "first extracellular loop of latent membrane protein 1 (LMP1), Epstein-Barr virus; Made on Rink amide resin, so the C-terminus may be an amide (surmised); also called target B1; B1 loop of LMP1; source: synthetic peptide (solid-phase Fmoc chemistry, RP-HPLC purified)"}}, "key": {"[1]": {"system": "LMP1 positive cells (C666.1, HeLa/LMP1)", "test": "Cellular uptake by flow cytometry, LMP1 positive cells", "type": "cell-based", "settings": "FITC-labeled peptide 100 μM, 24 hours, C666.1 and HeLa/LMP1", "description": "(§1) The cellular uptake of the FITC labeled B1.12 peptide/unrelated peptide was analyzed by flow cytometry. C666.1, HeLa/LMP1, and HeLa/Gpt cells, were seeded at a density of 4 × 10^5 cells/mL at 37 °C for 24 hours, and then incubated with 100 μM of both FITC-labeled peptides for 24 hours. Cells were washed three times, trypsinized, centrifuged at 1700 rpm for 5 minutes and then resuspended in 0.35 mL of PBS. The fluorescence associated to the cells was measured using LSR Fortessa X-20 (Becton Dickinson) for HeLa/LMP1 or Attune NxT Flow Cytometer (Thermofisher) cytometer for C666.1 and HeLa/Gpt cells."}, "[2]": {"system": "HeLa/Gpt cells", "test": "Fluorescence microscopy, HeLa/Gpt", "type": "cell-based", "settings": "10 µM FITC-labeled peptide, HeLa/Gpt negative control", "description": "To further investigate the fixation of the peptide on C666.1 cells, fluorescence microscopy was performed. Approximately 1 × 10^6 cells were washed 3 times with PBS, fixed with 4% parafolmaldehyde for 15 minutes, blocked by 5 mg/mL BSA for 1 hour, and incubated with 10 μM FITC labeled B1.12 peptide or anti-LMP1 antibody (1/500 Dako) for 1 hour at room temperature. After being washed with PBS, the fixation of LMP1 was detected by Alexa-fluor 405 labeled secondary antibody (1/100). HeLa/Gpt cells were also stained as described above to serve as negative control. Images were analyzed using an EVOS Floid Cell Imaging Station (Life Technologies)."}, "[3]": {"system": "LMP1 negative cells (HeLa/Gpt)", "test": "Cellular uptake by flow cytometry, LMP1 negative cells", "type": "cell-based", "settings": "FITC-labeled peptide 100 μM, 24 hours", "description": "as §1"}, "[4]": {"system": "C666.1 cells", "test": "Fluorescence microscopy, C666.1", "type": "cell-based", "settings": "10 µM FITC-labeled peptide, (1 hour elsewhere in the source), fixed C666.1 cells", "description": "To further investigate the fixation of the peptide on C666.1 cells, fluorescence microscopy was performed. […] After being washed with PBS, the fixation of LMP1 was detected by Alexa-fluor 405 labeled secondary antibody (1/100). HeLa/Gpt cells were also stained as described above to serve as negative control. Images were analyzed using an EVOS Floid Cell Imaging Station (Life Technologies)."}, "[5]": {"biological_target": "Latent membrane protein 1 (LMP1) on HeLa/LMP1 cells (Epstein-Barr virus) (UniProt P03230)", "sequence (P03230 whole entry)": "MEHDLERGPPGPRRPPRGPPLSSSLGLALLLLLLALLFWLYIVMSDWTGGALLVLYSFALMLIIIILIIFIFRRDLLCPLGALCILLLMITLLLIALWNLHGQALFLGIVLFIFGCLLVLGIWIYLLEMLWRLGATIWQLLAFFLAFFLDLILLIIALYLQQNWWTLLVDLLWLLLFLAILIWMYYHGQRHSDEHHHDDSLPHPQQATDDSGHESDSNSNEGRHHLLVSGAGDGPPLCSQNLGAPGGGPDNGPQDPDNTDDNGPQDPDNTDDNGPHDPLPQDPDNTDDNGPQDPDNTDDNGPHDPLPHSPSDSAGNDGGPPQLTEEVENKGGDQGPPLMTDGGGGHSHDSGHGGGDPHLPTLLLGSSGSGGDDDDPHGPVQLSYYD", "test": "ELISA; competitive inhibition on HeLa/LMP1 cells fixed with 4% paraformaldehyde (10^4 cells/well); synthetic peptide 50-200 µM at 37 °C for 1 hour, then B1.12 phage; anti-M13 antibody detection"}, "[6]": {"biological_target": "B2", "test": "ELISA; competitive inhibition: B1 peptide coated (100 µl of 1 mg/mL in NaHCO3); B1.12 peptide incubated 1 hour at room temperature, then B1.12 phage (2 × 10^10 pfu) 1 hour; bound phage detected by anti-M13 antibody", "settings": "both partners purified"}, "[7]": {"biological_target": "B1", "test": "ITC; 30 °C, NaHCO3 buffer 0.1 M pH 5.7; B1 peptide (0.2 mM) in the syringe injected (2 µL per injection) into B1.12 peptide (0.01 mM) in the cell", "settings": "both partners purified"}, "[8]": {"biological_target": "B2", "test": "ELISA; B1 peptide (100 µg) coated on the plate; about 1 × 10^10 pfu of phage clone added, 1 hour at room temperature; ten washes with 0.5% TBST; anti-M13 antibody and HRP anti-mouse, ABTS", "settings": "both partners purified"}}, "note": "*: point of attachment. FITC = O=C1OC2(c3ccc(O)cc3Oc3cc(O)ccc32)c2ccc(NC(=S)*)cc21", "data": [{"molecule": "FITC-labeled B1.12 peptide: N-terminus FITC labeled B1.12 ({FITC}-ACPLDLRSPCG-NH2; cysteine pairing not given here)", "values": [{"measurement": "cellular uptake", "setting": "[1]", "value": "significantly higher uptake"}, {"measurement": "binding to cells (microscopy)", "setting": "[2]", "value": "no binding was observed"}, {"measurement": "cellular binding/uptake", "setting": "[3]", "value": "no binding"}, {"measurement": "colocalization with LMP1", "setting": "[4]", "value": "co-localized with LMP1"}]}, {"molecule": "B1", "values": [{"measurement": "inhibition ratio of phage B1.12 binding at 100 µM peptide", "setting": "[5]", "value": 45, "unit": "%"}, {"measurement": "inhibition ratio of phage B1.12 binding at 400 µM peptide", "setting": "[6]", "value": "~43", "unit": "%"}]}, {"molecule": "B2", "values": [{"measurement": "binding result", "setting": "[7]", "value": "binds"}]}, {"molecule": "ACPLDLRSPCGGGS (other, whole phage particles were used and detected with an anti-M13 antibody; also called phage B1.12; positive phage B1.12; source: M13 phage clone from the Ph.D.-C7C library (New England Biolabs), amplified in E. coli ER2738 and titrated; not shown: M13 coat protein pIII (on the phage particle), C-terminal, kept)", "note": "[B1.12 phage clone]", "values": [{"measurement": "binding result", "setting": "[8]", "value": "binds"}]}]}
